Literature values in patent publication US9089677B2, “Transcutaneous multimodal delivery system (TMDS)” (The Regents of the University of California, priority 2011, dated 2015).
Read-outs that look alike come from different tables or passages of the source.

Columns and labels:
fibroblasts = conditions: cited from earlier work
keratinocytes = conditions: cited from earlier work
[1] = system: fungal subspecies (e.g., Candida albicans or glabrata as well as Mucor and Aspergillus); conditions: time kill-kinetic; cited from earlier work
[2] = system: keratinocyte and fibroblast; conditions: 10% solution; cited from earlier work
[3] = diabetic rodent wounds; cited from earlier work
[4] = up to 3 mg/kg subcutaneously or intravenously in mice, rats, and monkey; cited from earlier work
[5] = full thickness pig burn wounds; cited from earlier work
[6] = system: normal rat kidney fibroblast (NRK, clone 49F); conditions: NRK fibroblast proliferation; cited from earlier work

## NCc1ccc(S(N)(=O)=O)cc1 [MA, mafenide acetate]
fibroblasts
  lowest dose with reported in vitro toxicity: 0.1%
keratinocytes
  lowest dose with reported in vitro toxicity: 0.85%

## O=[N+]([O-])[O-].[Ag+] [silver nitrate]
[1]
  antimicrobial activity against fungal subspecies: activity for only C. albicans
[2]
  keratinocyte and fibroblast toxicity: keratinocyte and fibroblast toxicity

## becaplermin: recombinant human PDGF (rhPDGF)-BB homodimer
[3]
  granulation tissue formation: significantly increased granulation tissue formation
  reepithelialization: did not promote faster reepithelialization
[4]
  acute toxicity and mortality: no significant acute toxicity or any mortality
[5]
  granulation tissue formation: significantly increased granulation tissue formation
  reepithelialization: did not promote faster reepithelialization
[6]
  half maximal activity: 0.5 ng/mL
